Source: patent US9783505B2, “Substituted diaminopyrimidyl compounds, compositions thereof, and methods of treatment therewith” (Signal Pharmaceuticals, LLC, priority 2013, dated 2017)

How the values were obtained:
[1] = molecular target: T1, His-PKC-theta (Homo sapiens, UniProt Q04759); assay: PKC-theta Assay (384-well time resolved fluorescence, IMAP TR-FRET); assay type: biochemical; settings: read-out: Act. Level (IC50 in the PKC-theta Assay)
T1 construct: His; purchased Invitrogen
Method in brief: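 Fam-labeled S6-derived peptide (200 nM) and 10 μM ATP were reacted with 142 pM enzyme for 2 h at room temperature in HEPES pH 7.6 buffer with MgCl2, DTT, Triton X-100, BSA and EDTA. The reaction was stopped with IMAP progressive binding reagent plus Tb donor, incubated overnight, then TR-FRET read.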

[2] = molecular target: T2, PKC delta (Homo sapiens, UniProt Q05655); assay: PKC delta Assay (384-well time resolved fluorescence, IMAP TR-FRET); assay type: biochemical; settings: selectivity for PKC-theta over PKC-delta
T2 construct: purchased Invitrogen
T2 sequence (Q05655 whole entry): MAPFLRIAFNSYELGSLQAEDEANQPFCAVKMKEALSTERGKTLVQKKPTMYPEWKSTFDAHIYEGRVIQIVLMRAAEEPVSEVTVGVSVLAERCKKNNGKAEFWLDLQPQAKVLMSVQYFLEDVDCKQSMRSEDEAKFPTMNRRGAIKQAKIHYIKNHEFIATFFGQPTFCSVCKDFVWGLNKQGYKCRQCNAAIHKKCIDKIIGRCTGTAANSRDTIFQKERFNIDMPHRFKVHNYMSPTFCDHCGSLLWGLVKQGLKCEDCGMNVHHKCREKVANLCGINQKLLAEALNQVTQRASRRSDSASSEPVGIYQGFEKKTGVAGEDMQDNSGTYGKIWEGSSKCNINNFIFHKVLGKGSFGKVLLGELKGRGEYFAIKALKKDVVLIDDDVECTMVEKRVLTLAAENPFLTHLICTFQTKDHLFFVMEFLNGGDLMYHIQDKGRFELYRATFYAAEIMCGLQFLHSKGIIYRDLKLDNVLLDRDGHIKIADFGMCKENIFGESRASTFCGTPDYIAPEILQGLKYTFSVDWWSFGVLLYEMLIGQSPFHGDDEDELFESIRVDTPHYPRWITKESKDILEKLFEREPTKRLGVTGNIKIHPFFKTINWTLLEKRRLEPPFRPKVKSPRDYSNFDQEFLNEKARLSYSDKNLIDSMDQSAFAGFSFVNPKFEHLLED
Description: PKC delta Assay. A 384-well time resolved fluorescence assay was used to monitor PKC delta activity. The PKC delta assay was run in the following assay buffer: 50 mM HEPES pH 7.6, 10 mM MgCl2, 1 mM DTT, 0.01% Triton X-100, 0.01% BSA and 0.1 mM EDTA. To initiate the reaction, 200 nM of Fam-labeled S6-derived peptide (Molecular Devices) and 10 μM of ATP were mixed with 1.5 nM of PKC delta (Invitrogen), for a total assay volume of 25 μL in each well. The assay was incubated at room temperature for 2 hours and terminated using a 60 μL/well mixture of Detection Binding Solution: 70% IMAP Progressive Binding Buffer A, 30% IMAP Progressive Binding Buffer B, 1:600 Progressive Binding Reagent, and 1:400 TR-FRET Tb Donor (Molecular Devices). The assay plates were then incubated overnight at room temperature and read on the Perkin-Elmer Envision Reader.

T1 sequence (Q04759 whole entry): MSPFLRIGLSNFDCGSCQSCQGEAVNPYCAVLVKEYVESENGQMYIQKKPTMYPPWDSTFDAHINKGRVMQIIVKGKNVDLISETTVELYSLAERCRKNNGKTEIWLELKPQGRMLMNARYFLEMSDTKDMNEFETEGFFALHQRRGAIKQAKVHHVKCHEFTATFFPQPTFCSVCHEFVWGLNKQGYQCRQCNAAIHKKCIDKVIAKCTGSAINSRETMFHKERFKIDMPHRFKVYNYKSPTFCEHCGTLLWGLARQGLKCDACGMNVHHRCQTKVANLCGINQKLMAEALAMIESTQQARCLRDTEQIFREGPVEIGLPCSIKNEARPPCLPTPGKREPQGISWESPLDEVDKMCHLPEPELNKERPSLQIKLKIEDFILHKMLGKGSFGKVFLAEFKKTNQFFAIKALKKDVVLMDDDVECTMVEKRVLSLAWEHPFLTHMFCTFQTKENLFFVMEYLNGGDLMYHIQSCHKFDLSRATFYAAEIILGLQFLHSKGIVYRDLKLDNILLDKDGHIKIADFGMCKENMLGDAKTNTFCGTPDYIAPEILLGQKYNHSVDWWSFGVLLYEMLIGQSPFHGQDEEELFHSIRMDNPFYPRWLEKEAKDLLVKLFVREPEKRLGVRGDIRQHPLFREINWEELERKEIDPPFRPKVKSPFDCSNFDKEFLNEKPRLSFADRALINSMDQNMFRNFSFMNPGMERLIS

Row | Structure (SMILES) | IC50 [1] | Sel. Level (ratio of IC50 PKC-delta/IC50 PKC-theta) [2]
1 | CC1(C)C[C@H](Nc2nc(NCCc3noc(C(F)(F)F)n3)ncc2C#N)CC[C@@H]1O [Cmpd 219] | 800 to 2000 nM | G (selectivity between 5- and 20-fold (selectivity level G))
2 | CC1(C)[C@@H](O)C[C@H]1Nc1nc(NCCn2ccc3ccccc32)ncc1C#N [Cmpd 239] | 2000 to 10000 nM | H (selectivity level of 5-fold or less (selectivity level H))
3 | CC1(C)C[C@H](Nc2nc(NCCc3cccnc3)ncc2C#N)CC[C@@H]1O [Cmpd 281] | 800 to 2000 nM | G (selectivity between 5- and 20-fold (selectivity level G))
4 | CC1(C)[C@@H](O)C[C@H]1Nc1nc(NCCc2cncc(C(F)(F)F)c2)ncc1C#N [Cmpd 274] | 800 to 2000 nM | G (selectivity between 5- and 20-fold (selectivity level G))
5 | Cc1cc(C(F)(F)F)nn1CCNc1ncc(C#N)c(N[C@@H]2CC(O)C2(C)C)n1 (stereo partly shown) [Cmpd 225] | 2000 to 10000 nM | H (selectivity level of 5-fold or less (selectivity level H))
6 | COCc1noc(CCNc2ncc(C#N)c(N[C@@H]3CC[C@H](O)C(C)(C)C3)n2)n1 [Cmpd 199] | 2000 to 10000 nM | H (selectivity level of 5-fold or less (selectivity level H))
7 | CC1(C)C[C@H](Nc2nc(NCCc3cnoc3)ncc2C#N)CC[C@@H]1O [Cmpd 222] | 800 to 2000 nM | G (selectivity between 5- and 20-fold (selectivity level G))
8 | CC1(C)C[C@H](Nc2nc(NCCc3cc4cc(C#N)ccc4[nH]3)ncc2C#N)CC[C@@H]1O [Cmpd 251] | 100 to 800 nM | G (selectivity between 5- and 20-fold (selectivity level G))
9 | N#Cc1cnc(NCCc2c[nH]c3ccccc23)nc1N[C@H]1C[C@@H](C(N)=O)C1 [Cmpd 290] | 100 to 800 nM | F (selectivity of between 20- and 100-fold (selectivity level F))
10 | CNS(=O)(=O)Cc1ccc2[nH]cc(CCNc3ncc(C#N)c(N[C@@H]4C[C@H](O)C4(C)C)n3)c2c1 [Cmpd 266] | 2000 to 10000 nM | H (selectivity level of 5-fold or less (selectivity level H))
11 | Cc1cccnc1CCNc1ncc(C#N)c(NC2C[C@H](O)C2(C)C)n1 (stereo partly shown) [Cmpd 224] | 2000 to 10000 nM | H (selectivity level of 5-fold or less (selectivity level H))
12 | COc1cccc(CCNc2ncc(C#N)c(N[C@@H]3CC[C@H](O)C(C)(C)C3)n2)n1 [Cmpd 215] | 800 to 2000 nM | G (selectivity between 5- and 20-fold (selectivity level G))
13 | CC1(C)C[C@H](Nc2nc(NCCc3ccccn3)ncc2C#N)CC[C@@H]1O [Cmpd 282] | 2000 to 10000 nM | H (selectivity level of 5-fold or less (selectivity level H))
14 | CC1(C)C[C@H](Nc2nc(NCCc3ccon3)ncc2C#N)CC[C@@H]1O [Cmpd 220] | 800 to 2000 nM | G (selectivity between 5- and 20-fold (selectivity level G))
15 | Cc1cnccc1CCNc1ncc(C#N)c(N[C@@H]2C[C@H](O)C2(C)C)n1 [Cmpd 268] | 800 to 2000 nM | G (selectivity between 5- and 20-fold (selectivity level G))
16 | Cc1cc2ccccc2n1CCNc1ncc(C#N)c(N[C@@H]2CC[C@H](O)C(C)(C)C2)n1 [Cmpd 206] | 100 to 800 nM | F (selectivity of between 20- and 100-fold (selectivity level F))
17 | Cn1c(=O)n(CCNc2ncc(C#N)c(N[C@@H]3CC[C@H](O)C(C)(C)C3)n2)c2ccccc21 [Cmpd 291] | 2000 to 10000 nM | H (selectivity level of 5-fold or less (selectivity level H))
18 | CC1(C)[C@@H](O)C[C@H]1Nc1nc(NCCc2ccco2)ncc1C#N [Cmpd 234] | 800 to 2000 nM | G (selectivity between 5- and 20-fold (selectivity level G))
19 | CC1(C)[C@@H](O)C[C@H]1Nc1nc(NCCc2c[nH]c3ncccc23)ncc1C#N [Cmpd 241] | 800 to 2000 nM | G (selectivity between 5- and 20-fold (selectivity level G))
20 | CNC(=O)[C@H]1C[C@@H](Nc2nc(NCCc3c[nH]c4ccccc34)ncc2C#N)C1 [Cmpd 289] | 800 to 2000 nM | G (selectivity between 5- and 20-fold (selectivity level G))
21 | CC1(C)C[C@H](Nc2nc(NCCc3ccc4ccccc4n3)ncc2C#N)CC[C@@H]1O [Cmpd 256] | 800 to 2000 nM | G (selectivity between 5- and 20-fold (selectivity level G))
22 | CC1(C)[C@@H](O)C[C@H]1Nc1nc(NCCc2cccc3cc[nH]c23)ncc1C#N [Cmpd 229] | 800 to 2000 nM | G (selectivity between 5- and 20-fold (selectivity level G))
23 | CC(F)(F)COc1ncncc1CNc1ncc(C#N)c(N[C@H]2CCC[C@H](O)C2(C)C)n1 [Cmpd 296] | 100 to 800 nM | F (selectivity of between 20- and 100-fold (selectivity level F))
24 | Cc1ccc(CCNc2ncc(C#N)c(N[C@@H]3C[C@H](O)C3(C)C)n2)cn1 [Cmpd 235] | 2000 to 10000 nM | H (selectivity level of 5-fold or less (selectivity level H))
25 | Cc1cccc(CCNc2ncc(C#N)c(N[C@@H]3CC[C@H](O)C(C)(C)C3)n2)n1 [Cmpd 250] | 800 to 2000 nM | G (selectivity between 5- and 20-fold (selectivity level G))
26 | Cc1cnn(CCNc2ncc(C#N)c(N[C@@H]3CC[C@H](O)C(C)(C)C3)n2)c1 [Cmpd 212] | 2000 to 10000 nM | H (selectivity level of 5-fold or less (selectivity level H))
27 | CC1(C)C[C@H](Nc2nc(NCCc3cnccn3)ncc2C#N)CC[C@@H]1O [Cmpd 279] | 2000 to 10000 nM | H (selectivity level of 5-fold or less (selectivity level H))

Second part, led by results:

Row | IC50 [1] | Structure (SMILES) | Sel. Level (ratio of IC50 PKC-delta/IC50 PKC-theta) [2]
28 | 100 to 800 nM | CC1(C)[C@@H](Nc2nc(NCCC3C(=O)Nc4ccc(F)cc43)ncc2C#N)CCC[C@@H]1O (stereo partly shown) [Cmpd 313] | F (selectivity of between 20- and 100-fold (selectivity level F))
29 | 800 to 2000 nM | CN1C(=O)C(CCNc2ncc(C#N)c(N[C@@H]3CC[C@H](O)C(C)(C)C3)n2)c2ccccc21 (stereo partly shown) [Cmpd 300] | G (selectivity between 5- and 20-fold (selectivity level G))
30 | 100 to 800 nM | CCc1cccn1CCNc1ncc(C#N)c(N[C@H]2CC[C@@H](C(N)=O)CC2)n1 [Cmpd 323] | G (selectivity between 5- and 20-fold (selectivity level G))
31 | 100 to 800 nM | CC1(C)[C@H](O)CCC[C@@H]1Nc1nc(NCCC2C(=O)Nc3ccc(F)cc32)ncc1C#N (stereo partly shown) [Cmpd 315] | G (selectivity between 5- and 20-fold (selectivity level G))
32 | < 100 nM | CC1(C)[C@H](Nc2nc(NCc3cncnc3OCCC(F)(F)F)ncc2C#N)C[C@]1(C)O [Cmpd 334] | E (selectivity (Sel. Level=ratio of IC50 PKC-delta/IC50 PKC-theta) of >100-fold (selectivity level E))
33 | 2000 to 10000 nM | COc1cncc(CCNc2ncc(C#N)c(N[C@H]3CC[C@@H](O)CC3)n2)c1 [Cmpd 331] | H (selectivity level of 5-fold or less (selectivity level H))
34 | 100 to 800 nM | COc1cncc(CCNc2ncc(C#N)c(N[C@@H]3CC[C@H](O)C(C)(C)C3)n2)c1 [Cmpd 329] | G (selectivity between 5- and 20-fold (selectivity level G))
35 | 100 to 800 nM | CC(F)(F)COc1ncncc1CNc1ncc(C#N)c(N[C@@H]2CCC[C@@H](O)C2(C)C)n1 [Cmpd 297] | F (selectivity of between 20- and 100-fold (selectivity level F))
36 | 100 to 800 nM | C[C@]1(O)CC2(C[C@H](Nc3nc(NCCC4C(=O)Nc5ccccc54)ncc3C#N)C2)C1 (stereo partly shown) [Cmpd 301] | F (selectivity of between 20- and 100-fold (selectivity level F))
37 | 100 to 800 nM | N#Cc1cnc(NCCc2c[nH]c3cnccc23)nc1N[C@H]1CC[C@@H](C(N)=O)CC1 [Cmpd 320] | F (selectivity of between 20- and 100-fold (selectivity level F))
38 | 100 to 800 nM | CCOc1cc(CCNc2ncc(C#N)c(N[C@@H]3CC[C@H](O)C(C)(C)C3)n2)ccn1 [Cmpd 330] | G (selectivity between 5- and 20-fold (selectivity level G))
39 | 100 to 800 nM | Cc1ncccc1CCNc1ncc(C#N)c(N[C@H]2CC[C@@H](C(N)=O)CC2)n1 [Cmpd 322] | G (selectivity between 5- and 20-fold (selectivity level G))
40 | < 100 nM | CC1(C)[C@@H](C(N)=O)C[C@H]1Nc1nc(NCCC2C(=O)Nc3ccccc32)ncc1C#N (stereo partly shown) [Cmpd 318] | E (selectivity (Sel. Level=ratio of IC50 PKC-delta/IC50 PKC-theta) of >100-fold (selectivity level E))
41 | 100 to 800 nM | CC1(C)C[C@H](Nc2nc(NCCc3cc(C(F)(F)F)ccn3)ncc2C#N)CC[C@@H]1O [Cmpd 326] | G (selectivity between 5- and 20-fold (selectivity level G))
